According to article PMC10945556, “Design, Synthesis, and Antifungal Activity of 3-Substituted-2(5H)-Oxaboroles” (ACS Medicinal Chemistry Letters, 2024):
≈ marks a conversion by molar mass, not a printed value.

Tests used:
S. cerevisiae = assay: MIC, microbroth dilution; assay type: cell-based, Saccharomyces cerevisiae
B. cereus = assay: MIC, microbroth dilution; assay type: cell-based, Bacillus cereus
C. albicans = assay: MIC, microbroth dilution; assay type: cell-based, Candida albicans
A. flavus = assay: MIC, dose-dependent solid media assay; assay type: cell-based, Aspergillus flavus
[1] = system: Methicillin resistant Staphylococcus aureus; assay: MIC, microbroth dilution; assay type: cell-based; details: S. aureus (MRSA)
E. coli = assay: MIC, microbroth dilution; assay type: cell-based, Escherichia coli
T. mentagrophytes = assay: MIC, dose-dependent solid media assay; assay type: cell-based, Trichophyton mentagrophytes
P. chrysogenum = assay: MIC, dose-dependent solid media assay; assay type: cell-based, Penicillium chrysogenum
P. aeruginosa = assay: MIC, microbroth dilution; assay type: cell-based, Pseudomonas aeruginosa
[2] = Saccharomyces cerevisiae, value in parentheses
[3] = Bacillus cereus, value in parentheses
[4] = Candida albicans, value in parentheses
[5] = Aspergillus flavus, value in parentheses
[6] = Staphylococcus aureus, value in parentheses
[7] = Escherichia coli, value in parentheses
[8] = Trichophyton mentagrophytes, value in parentheses
[9] = Penicillium chrysogenum, value in parentheses
[10] = Pseudomonas aeruginosa, value in parentheses

SMILES	MIC (S. cerevisiae; Saccharomyces cerevisiae)	MIC (S. cerevisiae; [2])	MIC (B. cereus; Bacillus cereus)	MIC (B. cereus; [3])	MIC (C. albicans; Candida albicans)	MIC (C. albicans; [4])	MIC (A. flavus; Aspergillus flavus)	MIC (A. flavus; [5])	MIC ([1]; Staphylococcus aureus)	MIC [1, 6]	MIC (E. coli; Escherichia coli)	MIC (E. coli; [7])	MIC (T. mentagrophytes; Trichophyton mentagrophytes)	MIC (T. mentagrophytes; [8])	MIC (P. chrysogenum; Penicillium chrysogenum)	MIC (P. chrysogenum; [9])	MIC (P. aeruginosa; Pseudomonas aeruginosa)	MIC (P. aeruginosa; [10])	also measured
OB1OCC=C1c1ccccc1Cl [Compound 6g]	50 µg/mL	258 µM	> 50 µg/mL	> 258 µM	> 50 µg/mL	> 258 µM	> 50 µg/mL	> 258 µM	> 50 µg/mL	> 258 µM	> 50 µg/mL	> 258 µM	> 50 µg/mL	> 258 µM	> 50 µg/mL	> 258 µM	> 50 µg/mL	> 258 µM	–
OB1OCC=C1c1ccccc1 [Compound 6a]	6.25 µg/mL	39.1 µM	> 50 µg/mL	313 µM	> 50 µg/mL	> 313 µM	> 50 µg/mL	> 313 µM	> 50 µg/mL	> 313 µM	> 50 µg/mL	> 313 µM	> 50 µg/mL	> 313 µM	50 µg/mL	313 µM	> 50 µg/mL	> 313 µM	–
Cc1ccccc1C1=CCOB1O [Compound 6v]	> 50 µg/mL	> 287 µM	> 50 µg/mL	> 287 µM	> 50 µg/mL	> 287 µM	> 50 µg/mL	> 287 µM	> 50 µg/mL	> 287 µM	> 50 µg/mL	> 287 µM	> 50 µg/mL	> 287 µM	> 50 µg/mL	> 287 µM	> 50 µg/mL	> 287 µM	–
OB1OCC=C1c1cccc(I)c1 [Compound 6l]	> 50 µg/mL	> 175 µM	> 50 µg/mL	> 175 µM	> 50 µg/mL	> 175 µM	25 µg/mL	87.4 µM	> 50 µg/mL	> 175 µM	> 50 µg/mL	> 175 µM	25 µg/mL	87.4 µM	6.25 µg/mL	21.9 µM	> 50 µg/mL	> 175 µM	–
OB1OCC=C1c1ccccc1F [Compound 6d]	21 ± 4 µg/mL	118 µM	> 50 µg/mL	> 281 µM	> 50 µg/mL	> 281 µM	> 50 µg/mL	> 281 µM	> 50 µg/mL	> 281 µM	> 50 µg/mL	> 281 µM	> 50 µg/mL	> 281 µM	25 µg/mL	140 µM	> 50 µg/mL	> 281 µM	–
OB1OCC=C1c1ccccc1Br [Compound 6j]	> 50 µg/mL	> 210 µM	> 50 µg/mL	> 210 µM	> 50 µg/mL	> 210 µM	> 50 µg/mL	> 210 µM	> 50 µg/mL	> 210 µM	> 50 µg/mL	> 210 µM	> 50 µg/mL	> 210 µM	> 50 µg/mL	> 210 µM	> 50 µg/mL	> 210 µM	–
OB1OCC=C1C1=CCCCC1 [Compound 6y]	21 ± 4 µg/mL	128 µM	> 50 µg/mL	> 305 µM	> 50 µg/mL	> 305 µM	> 50 µg/mL	> 305 µM	> 50 µg/mL	> 305 µM	> 50 µg/mL	> 305 µM	> 50 µg/mL	> 305 µM	> 50 µg/mL	> 305 µM	> 50 µg/mL	> 305 µM	–
COc1ccc(C2=CCOB2O)cc1 [Compound 6n]	> 50 µg/mL	> 263 µM	> 50 µg/mL	> 263 µM	> 50 µg/mL	> 263 µM	> 50 µg/mL	> 263 µM	> 50 µg/mL	> 263 µM	> 50 µg/mL	> 263 µM	> 50 µg/mL	> 263 µM	> 50 µg/mL	> 263 µM	> 50 µg/mL	> 263 µM	–
OB1OCC=C1c1cccc(Cl)c1 [Compound 6f]	21 ± 4 µg/mL	108 µM	> 50 µg/mL	> 258 µM	> 50 µg/mL	> 258 µM	25 µg/mL	129 µM	> 50 µg/mL	> 258 µM	> 50 µg/mL	> 258 µM	25 µg/mL	129 µM	12.5 µg/mL	64.4 µM	> 50 µg/mL	> 258 µM	–
COc1ccccc1C1=CCOB1O [Compound 6p]	> 50 µg/mL	> 263 µM	> 50 µg/mL	> 263 µM	> 50 µg/mL	> 263 µM	> 50 µg/mL	> 263 µM	> 50 µg/mL	> 263 µM	> 50 µg/mL	> 263 µM	> 50 µg/mL	> 263 µM	> 50 µg/mL	> 263 µM	> 50 µg/mL	> 263 µM	–
C[C@@H]1C[C@@H]([C@H](O)CC2CC(=O)NC(=O)C2)C(=O)[C@@H](C)C1 [Cycloheximide, reference compound]	1.56 µg/mL	5.54 µM	> 50 µg/mL	> 178 µM	> 50 µg/mL	> 178 µM	> 50 µg/mL	> 178 µM	> 50 µg/mL	> 178 µM	> 50 µg/mL	> 178 µM	> 50 µg/mL	> 178 µM	12.5 µg/mL	44.4 µM	> 50 µg/mL	> 178 µM	–
C[C@@H]1[C@H](O)[C@@H](C)/C=C/C=C/CC/C=C/C=C/C=C/C=C/C(O[C@H]2O[C@H](C)[C@@H](O)[C@H](N)[C@@H]2O)CC2O[C@](O)(CC(O)C(O)CCC(O)CC(O)CC(O)CC(=O)O[C@H]1C)CC(O)C2C(=O)O (some centres unmarked) [Nystatin, reference compound]	–	–	–	–	–	–	–	–	–	–	–	–	–	–	–	–	–	–	MIC SC (S. cerevisiae): 1.56 ± 0 µg/mL (≈ 1.68 µM); MIC (S. cerevisiae; value in parentheses): 1.68 µM; MIC BC (B. cereus): > 50 µg/mL; MIC (B. cereus; value in parentheses): > 54.0 µM; MIC CA (C. albicans): 0.78 ± 0 µg/mL (≈ 0.842 µM); MIC (C. albicans; value in parentheses): 0.84 µM; MIC AF (A. flavus): 2.6 ± 0.5 µg/mL (≈ 2.81 µM); MIC (A. flavus; value in parentheses): 2.81 µM; MIC SA [1]: > 50 µg/mL; MIC ([1]; value in parentheses): > 54.0 µM; MIC EC (E. coli): > 50 µg/mL; MIC (E. coli; value in parentheses): > 54.0 µM; MIC TM (T. mentagrophytes): 3.13 ± 0 µg/mL (≈ 3.38 µM); MIC (T. mentagrophytes; value in parentheses): 3.38 µM; MIC PC (P. chrysogenum): 1.56 ± 0 µg/mL (≈ 1.68 µM); MIC (P. chrysogenum; value in parentheses): 1.68 µM; MIC PA (P. aeruginosa): > 50 µg/mL; MIC (P. aeruginosa; value in parentheses): > 54.0 µM
OB1OCc2cc(F)ccc21 [Compound 1, tavaborole, reference compound]	0.26 ± 0.06 µg/mL	1.71 µM	> 50 µg/mL	> 329 µM	2.3 ± 0.8 µg/mL	15.1 µM	0.78 µg/mL	5.14 µM	~50 µg/mL	> 329 µM	17 ± 4 µg/mL	112 µM	0.78 µg/mL	5.14 µM	1 ± 0.3 µg/mL	6.58 µM	> 50 µg/mL	> 329 µM	–
OB1OCC=C1c1ccc(OC(F)(F)F)cc1 [Compound 6m]	29 ± 11 µg/mL	119 µM	> 50 µg/mL	> 205 µM	> 50 µg/mL	> 205 µM	50 µg/mL	205 µM	> 50 µg/mL	> 205 µM	> 50 µg/mL	> 205 µM	50 µg/mL	205 µM	12.5 µg/mL	51.2 µM	> 50 µg/mL	> 205 µM	–
OB1OCC=C1c1cccc(F)c1 [Compound 6c]	10.4 ± 2 µg/mL	58.4 µM	> 50 µg/mL	> 281 µM	> 50 µg/mL	> 281 µM	50 µg/mL	281 µM	> 50 µg/mL	> 281 µM	> 50 µg/mL	> 281 µM	50 µg/mL	281 µM	25 µg/mL	140 µM	> 50 µg/mL	> 281 µM	–
COc1cccc(C2=CCOB2O)c1 [Compound 6o]	50 µg/mL	263 µM	> 50 µg/mL	> 263 µM	> 50 µg/mL	> 263 µM	> 50 µg/mL	> 263 µM	> 50 µg/mL	> 263 µM	> 50 µg/mL	> 263 µM	> 50 µg/mL	> 263 µM	50 µg/mL	263 µM	> 50 µg/mL	> 263 µM	–
Cc1cc(F)cc(C2=CCOB2O)c1 [Compound 6k]	12.5 µg/mL	65.1 µM	> 50 µg/mL	> 260 µM	> 50 µg/mL	> 260 µM	42 ± 8 µg/mL	219 µM	> 50 µg/mL	> 260 µM	–	> 260 µM	42 ± 8 µg/mL	219 µM	12.5 µg/mL	65.1 µM	> 50 µg/mL	> 260 µM	–
